Measured values: US20170306409A1, “CANCER PATIENT SELECTION FOR ADMINISTRATION OF WNT SIGNALING INHIBITORS USING RNF43 MUTATION STATUS” (NOVARTIS AG, priority 2012, published 2017)

Experiments:
Assay type in all cases: cell-based, human
BXPC3 = test: cell line proliferation assay (Cell Titer Glo)
Procedure: (§1) The sensitivity of pancreatic cells to LGK974 treatment were tested in a cellular proliferation assay in vitro. Twenty four human pancreatic cancer cell lines were treated with or without LGK974. Cellular proliferation data was generated in 384 well format. Cells were harvested and resuspended in their appropriate growth medium at a density of 1.5×10^4 cells per mL. […] Plates were then transferred to incubators on the ACP-1 system (37° C., 5% CO2) and cells were allowed to attach overnight. […] Following compound addition, plates were returned to the incubator for 120 hours. The assay plates were read with the addition of 10 μL of 1× Cell Titer Glo (Promega G7573) according to the manufacturer's instructions. Plates were then incubated at room temperature for ten minutes and read on the integrated Perkin Elmer Viewlux (2 second exposure, 2× bin, high sensitivity). The raw data was normalized using the DMSO control wells within each plate and the curve fitting for IC50 determination was performed. Cell growth was measured five days later with Cell Titer Glo (Promega). […] As shown in TABLE 4 and Example 4, all four cell lines harbor RNF43 loss-of-function (LOF) mutations

Capan-2 = test: cell line proliferation assay (Cell Titer Glo)
Procedure: as §1

HPAFII = test: cell line proliferation assay (Cell Titer Glo)
Procedure: as §1

KP-1N = test: cell line proliferation assay (Cell Titer Glo)
Procedure: as §1

KP-2 = test: cell line proliferation assay (Cell Titer Glo)
Procedure: as §1

PA-TU-8902 = test: cell line proliferation assay (Cell Titer Glo)
Procedure: as §1

PA-TU-8988S = test: cell line proliferation assay (Cell Titer Glo)
Procedure: as §1

PK-1 = test: cell line proliferation assay (Cell Titer Glo)
Procedure: as §1

PK-59 = test: cell line proliferation assay (Cell Titer Glo)
Procedure: as §1

Panc 03.27 = test: cell line proliferation assay (Cell Titer Glo)
Procedure: as §1

Panc 05.04 = test: cell line proliferation assay (Cell Titer Glo)
Procedure: as §1

Panc 10.05 = test: cell line proliferation assay (Cell Titer Glo)
Procedure: as §1

SU8686 = test: cell line proliferation assay (Cell Titer Glo)
Procedure: as §1

YAPC = test: cell line proliferation assay (Cell Titer Glo)
Procedure: as §1

Axin2, Capan-1 = test: Axin2 qPCR assay (pathway inhibition)
Procedure: (§2) For reverse transcription and quantitative PCR (qPCR), total RNA was extracted from cells or tumors using the RNeasy Plus Mini Kit (Qiagen). 1 μg of RNA were reverse transcribed with Taqman Reverse Transcription Reagents (Applied Biosystems) according to the manufacturer's instruction. Quantitative PCR was performed in 12 μl reactions consisting of 0.6 μl of 20× Taqman probe and PCR primer mix, 6 μl 2× Taqman FAST Advanced Master Mix (Applied Biosystems), and 5.4 μl diluted cDNA template. The thermocycling conditions utilized were 20 seconds at 95° C., followed by 40 cycles of 1 second at 95° C. and 20 seconds at 60° C. All experiments were performed in quadruplicates. Gene expression analysis was performed using the comparative ΔΔCT method and normalized with the housekeeping gene GUSB or 18S. The Taqman probes were purchased from Applied Biosystems.

Axin2, Capan-2 = test: Axin2 qPCR assay (pathway inhibition)
Procedure: as §2

Axin2, DanG = test: Axin2 qPCR assay (pathway inhibition)
Procedure: as §2

Axin2, HuPT3 = test: Axin2 qPCR assay (pathway inhibition)
Procedure: as §2

Axin2, HuPT4 = test: Axin2 qPCR assay (pathway inhibition)
Procedure: as §2

Axin2, KP1-N = test: Axin2 qPCR assay (pathway inhibition)
Procedure: as §2

Axin2, KP2 = test: Axin2 qPCR assay (pathway inhibition)
Procedure: as §2

Axin2, KP4 = test: Axin2 qPCR assay (pathway inhibition)
Procedure: as §2

Axin2, MIA CaPa-2 = test: Axin2 qPCR assay (pathway inhibition)
Procedure: as §2

Axin2, PK1 = test: Axin2 qPCR assay (pathway inhibition)
Procedure: as §2

Axin2, PK59 = test: Axin2 qPCR assay (pathway inhibition)
Procedure: as §2

Axin2, PL45 = test: Axin2 qPCR assay (pathway inhibition)
Procedure: as §2

Axin2, PaTu-8902 = test: Axin2 qPCR assay (pathway inhibition)
Procedure: as §2

Axin2, PaTu-8988T = test: Axin2 qPCR assay (pathway inhibition)
Procedure: as §2

Axin2, Panc05.04 = test: Axin2 qPCR assay (pathway inhibition)
Procedure: as §2

Axin2, Panc10.05 = test: Axin2 qPCR assay (pathway inhibition)
Procedure: as §2

[1] = Homo sapiens, 120 hours, Cell Titer Glo, read-out: LGK974 IC50s in cell line proliferation assay

SMILES: Cc1cc(-c2ncc(CC(=O)Nc3ccc(-c4cnccn4)cn3)cc2C)ccn1 [LGK974, 2-[5-methyl-6-(2-methylpyridin-4-yl)pyridin-3-yl]-N-[5-(pyrazin-2-yl)pyridin-2-yl]acetamide]
- Inhibition fold change (1-Treated/Control) (BXPC3; BxPC3): 0.01
- IC50 (BXPC3; Homo sapiens, BXPC-3, BXPC3, 120 hours, Cell Titer Glo, read-out: LGK974 IC50s in cell line proliferation assay): > 2000 nM
- Inhibition fold change (1-Treated/Control) (Capan-2): 0.40
- IC50 (Capan-2; [1]): 1.8 nM
- Inhibition fold change (1-Treated/Control) (HPAFII): 0.50
- IC50 (HPAFII; Homo sapiens, HPAF-II, 120 hours, Cell Titer Glo, read-out: LGK974 IC50s in cell line proliferation assay): 33.6 nM
- Inhibition fold change (1-Treated/Control) (KP-1N): 0.01
- IC50 (KP-1N; [1]): > 2000 nM
- Inhibition fold change (1-Treated/Control) (KP-2): 0.06
- IC50 (KP-2; [1]): > 2000 nM
- Inhibition fold change (1-Treated/Control) (PA-TU-8902): 0.02
- IC50 (PA-TU-8902; Homo sapiens, PaTu 8902, 120 hours, Cell Titer Glo, read-out: LGK974 IC50s in cell line proliferation assay): > 2000 nM
- Inhibition fold change (1-Treated/Control) (PA-TU-8988S): 0.40
- IC50 (PA-TU-8988S; Homo sapiens, PaTuÂ 8988s, 120 hours, Cell Titer Glo, read-out: LGK974 IC50s in cell line proliferation assay): 11.6 nM
- Inhibition fold change (1-Treated/Control) (PK-1): 0.00
- IC50 (PK-1; [1]): > 2000 nM
- Inhibition fold change (1-Treated/Control) (PK-59): 0.06
- IC50 (PK-59; [1]): > 2000 nM
- IC50 (Panc 03.27; Homo sapiens, PANC-03-27, Panc 03.27, 120 hours, Cell Titer Glo, read-out: LGK974 IC50s in cell line proliferation assay): > 2000 nM
- Inhibition fold change (1-Treated/Control) (Panc 03.27; Panc03.27): 0.06
- IC50 (Panc 05.04; Homo sapiens, Panc 05.04, 120 hours, Cell Titer Glo, read-out: LGK974 IC50s in cell line proliferation assay): > 2000 nM
- Inhibition fold change (1-Treated/Control) (Panc 05.04; Panc05.04): 0.09
- IC50 (Panc 10.05; Homo sapiens, Panc1005, Panc 10.05, 120 hours, Cell Titer Glo, read-out: LGK974 IC50s in cell line proliferation assay): > 2000 nM
- Inhibition fold change (1-Treated/Control) (Panc 10.05; Panc10.05): 0.02
- Inhibition fold change (1-Treated/Control) (SU8686): 0.03
- IC50 (SU8686; Homo sapiens, SU.86.86, 120 hours, Cell Titer Glo, read-out: LGK974 IC50s in cell line proliferation assay): > 2000 nM
- Inhibition fold change (1-Treated/Control) (YAPC): 0.20
- IC50 (YAPC; [1]): > 2000 nM
- Pathway inhibition in Axin2 qPCR assay (Axin2, Capan-1): No
- Pathway inhibition in Axin2 qPCR assay (Axin2, Capan-2): Yes
- Pathway inhibition in Axin2 qPCR assay (Axin2, DanG): No
- Pathway inhibition in Axin2 qPCR assay (Axin2, HuPT3): Yes
- Pathway inhibition in Axin2 qPCR assay (Axin2, HuPT4): No
- Pathway inhibition in Axin2 qPCR assay (Axin2, KP1-N): Yes
- Pathway inhibition in Axin2 qPCR assay (Axin2, KP2): Yes
- Pathway inhibition in Axin2 qPCR assay (Axin2, KP4): No
- Pathway inhibition in Axin2 qPCR assay (Axin2, MIA CaPa-2): No
- Pathway inhibition in Axin2 qPCR assay (Axin2, PK1): Yes
- Pathway inhibition in Axin2 qPCR assay (Axin2, PK59): Yes
- Pathway inhibition in Axin2 qPCR assay (Axin2, PL45): No
- Pathway inhibition in Axin2 qPCR assay (Axin2, PaTu-8902): Yes
- Pathway inhibition in Axin2 qPCR assay (Axin2, PaTu-8988T): Yes
- Pathway inhibition in Axin2 qPCR assay (Axin2, Panc05.04): Yes
- Pathway inhibition in Axin2 qPCR assay (Axin2, Panc10.05): Yes
